In patent US20070105837A1, “Novel derivatives of 4a,5,9,10,11,12-hexahydrobenzofuro[3a,3,2][2]-benzazepine, method for the production thereof and use thereof in the production of medicaments” (priority 2003, published 2007):
Structures can show the parent of a compound that is named as a salt.

What follows are compounds tested against butyrylcholinesterase (Homo sapiens, UniProt P06276) (assay: biochemical). Conditions: not given.
butyrylcholinesterase, sequence (P06276 29-602): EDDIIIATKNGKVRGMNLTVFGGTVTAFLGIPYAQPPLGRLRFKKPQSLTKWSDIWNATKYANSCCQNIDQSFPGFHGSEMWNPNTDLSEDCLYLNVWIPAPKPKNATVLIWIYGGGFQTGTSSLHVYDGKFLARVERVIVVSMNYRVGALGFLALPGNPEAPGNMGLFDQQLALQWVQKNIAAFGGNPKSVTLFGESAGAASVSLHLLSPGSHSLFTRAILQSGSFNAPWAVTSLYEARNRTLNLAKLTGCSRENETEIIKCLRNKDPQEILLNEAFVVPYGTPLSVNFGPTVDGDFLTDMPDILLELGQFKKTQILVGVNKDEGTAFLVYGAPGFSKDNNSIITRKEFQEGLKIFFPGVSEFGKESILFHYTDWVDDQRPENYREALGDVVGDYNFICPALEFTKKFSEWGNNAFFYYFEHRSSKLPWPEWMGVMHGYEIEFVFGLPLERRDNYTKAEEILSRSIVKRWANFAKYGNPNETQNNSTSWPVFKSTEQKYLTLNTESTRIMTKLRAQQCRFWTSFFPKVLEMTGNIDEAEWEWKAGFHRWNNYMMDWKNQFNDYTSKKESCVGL

Compound	IC50
COc1cc(Br)c2c3c1O[C@H]1C[C@H](O)C=C[C@@]31CCNC2 [Example 1, (4aS,6S,8S)-1-bromo-4a,5,9,10,11,12-hexahydro-3-methoxy-6H-[1]benzofuro[3a,3,2-ef][2]benzazepin-6-ol.]	> 100 µM
COc1cc(Br)c2c3c1O[C@@H]1C[C@@H](O)C=C[C@]31CCNC2 [Example 3, (4aR,6R,8R)-1-bromo-4a,5,9,10,11,12-hexahydro-3-methoxy-6H-[1]benzofuro[3a,3,2-ef][2]benzazepin-6-ol.]	> 100 µM
C=C(C)CN1CC[C@@]23C=C[C@@H](O)C[C@@H]2Oc2c(OC)ccc(c23)C1 [Example 17, (4aS,6S,SaS)-4a,5,9,10,11,12-hexahydro-3-methoxy-11-(2-methyl-prop-2-enyl)-6H-[1]benzofuro[3a,3,2-ef][2]benzazepin-6-ol]	> 100 µM
COc1ccc2c3c1O[C@H]1C[C@@H](O)C=C[C@@]31CCN(CC(C)c1cccc(Oc3ccccc3)c1)C2 (stereo partly drawn) [Example 32, 2-((4aS,6R,8aS)-6-hydroxy-3-methoxy-5,6,9,10-tetrahydro-4aH-[1]benzofuro[3a,3,2-ef][2]benzazepine-11(12H)-yl)-1-methyl-1-(3-phenoxyphenyl)ethane hydrochloride]	0.36 µM
COc1ccc2c3c1O[C@H]1C[C@@H](O)C=C[C@@]31CCN(Cc1ccc(Br)cc1)C2 [Example 43, (4aS,6R,8aS)-11-(4-brombenzyl)-4a,5,9,10,11,12-hexahydro-3-methoxy-6H-[1]benzofuro[3a,3,2-ef][2]benzazepin-6-ol]	0.0006 µM
C=C(C)CN1CC[C@@]23C=C[C@H](O)C[C@@H]2Oc2c(OC)ccc(c23)C1 [Example 46, (4aS,6R,8aS)-4a,5,9,10,11,12-hexahydro-3-methoxy-11-(2-methyl-prop-2-enyl)-6H-[1]benzofuro[3a,3,2-ef][2]benzazepin-6-ol, hydrochloride]	0.34 µM
COc1ccc2c3c1O[C@@H]1C[C@H](O)C=C[C@]31CC[N+](C)=C2 [Example 55, (4aR,6S,8aR)-6-hydroxy-3-methoxy-11-methyl-4a,5,9,10-tetrnhydro-6H-benzofuro[3a,3,2-eq][2]benzazepinium bromide]	> 100 µM
COc1ccc2c3c1O[C@@H]1C[C@@H](O)C=C[C@]31CC[N+](C)=C2 [Example 56, (4aR,6R,8aR)-6-hydroxy-3-methoxy-11-methyl-4a,5,9,10-tetrahydro-6H-benzofuro[3a,3,2-ef][2]benzazepineium bromide]	> 100 µM

Same assay, conditions: concentration at which 50% inhibition occurs; read-out: Butyrylcholinesterase IC-50

Compound	IC50
(4aS,6S,8aS)-1-bromo-6-hydroxy-3-methoxy-4a,5, 9,10-tetrahydro-6N-[1]benzofuro[3a,3,2-et][2]benzazepine-11(12H)-thiocarbonic acid allylamide [Example 2]	> 100 µM

Same assay, conditions: read-out: Butyrylcholinesterase IC-50

Compound	IC50
COc1cc(Br)c2c3c1OC1C[C@H](O)C=C[C@]31CCN(CCN1CCOCC1)C2 (single isomer, unassigned) [Example 58]	53 µM
COc1ccc2c3c1O[C@H]1C[C@@H](O)C=C[C@@]31CCN(C(N)=S)C2 (stereo in doubt) [Example 30, (4aS,6R,8aS)-6-hydroxy-3-methoxy-5,6,9,10-tetrahydro-4aH-[1]benzofuro[3a,3,2-ef][2]benzazepine-11(12H)-carbothioamide]	> 100 µM
COc1cc(Br)c2c3c1O[C@@H]1C[C@H](O)C=C[C@]31CCN(C(=O)CN1CCN(C)CC1)C2 [Example 7, 1-[(4aR,6S,8aR)-1-bromo-6-hydroxy-3-methoxy-5,6,9,10-tetrahydro-4aH-[1]benzofuro[3a,3,2-ef][2]benzazepine-11(12H)-yl]-2-(4-methylpiperazinyl)ethan-1-one]	> 100 µM
C=CCNC(=S)N1CC[C@@]23C=C[C@@H](O)C[C@@H]2Oc2c(OC)cc(Br)c(c23)C1 [Example 12, (4aS,6R,8aS)-1-bromo-6-hydroxy-3-methoxy-4a,5,9,10-tetrahydro-6H-[1]benzofuro[3a,3,2-ef][2]benzazepine-11(12H)-thiocarbonic acid allylamide]	11 µM
COc1ccc2c3c1O[C@H]1C[C@H](O)C=C[C@@]31CCN(CCN1CCOCC1)C2 [Example 15, (4aS,6S,8aS)-4a,5,9,10,11,12-hexahydro-11-(2-(morpholin-4-yl)-ethyl)-3-methoxy-6H-[1]benzofuro[3a,3,2-ef][2]benzazepin-6-ol]	> 100 µM
COc1ccc2c3c1O[C@H]1C[C@H](O)C=C[C@@]31CCN(C(=O)c1ccccc1)C2 [Example 19, (4aS,6S,8aS)-4a,5,9,10,11,12-hexahydro-3-methoxy-11-benzoyl-6H-[1]benzafuro[3a,3,2-ef][2]benzazepin-6-ol]	> 100 µM
COc1ccc2c3c1O[C@H]1C[C@H](O)C=C[C@@]31CCN(CC=C(C)C)C2 [Example 22, (4aS,6S,8aS)-4a,5,9,10,11,12-hexahydro-3-methoxy-11-(3-Methylbut-2-en-1-yl)-6H-[1]benzofuro[3a,3,2-ef][2]benzazepin-6-ol]	20 µM
COc1ccc2c3c1O[C@H]1C[C@@H](O)C=C[C@@]31CCN(C(=O)c1ccccc1)C2 [Example 33, (4aS,6R,8aS)-4a,5,9,10,11,12-hexahydro-3-methoxy-11-benzoyl-6H-[1]benzofuro[3a,3,2-ef][2]benzazepin-6-ol]	> 100 µM
COc1ccc2c3c1O[C@H]1C[C@@H](O)C=C[C@@]31CCN(CC(C)C(=O)c1ccc(C)cc1)C2 (stereo partly drawn) [Example 35, 3-[(4aS,6R,8aS)-6-hydroxy-3-methoxy-5,6,9,10-tetrahydro-4aH-[1]benzofuro[3a,3,2-ef][2]benzazepine-11(12H)-yl]-2-methyl-1(- 4-methylphenyl)propan-1-one, hydrochloride]	0.4 µM
COc1ccc2c3c1O[C@H]1C[C@@H](O)C=C[C@@]31CCN(C(=O)CN1CCCCC1)C2 [Example 36, 1-[(4aS,6R,8aS)-6-hydroxy-3-methoxy-5,6,9,10-tetrahydro-4aH-[1]benzofuro[3a,3,2-ef][2]benzazepine-11(12H)-yl]-2-(1-piperidyl)ethan-1-one]	> 100 µM
COc1ccc2c3c1O[C@H]1C[C@@H](O)C=C[C@@]31CCN(C(=O)CCN1CCCC1)C2 [Example 38, 1-[(4aS,6R,8aS)-6-hydroxy-3-methoxy-5,6,9,10-tetrahydro-4aH-[1]benzofuro[3a,3,2-ef][2]benzazepine-11(12H)-yl]-3-(1-pyrrolidyl) propan-1-one]	2.4 µM
COc1ccc2c3c1O[C@H]1C[C@@H](O)C=C[C@@]31CCN(CCc1ccccc1Nc1c(Cl)cccc1Cl)C2 [Example 40, 1-((4aS,6R,8aS)-6-hydroxy-3-methoxy-5,6,9,10-tetrahydro-4aH-[1]benzofuro[3a,3,2-ef][2]benzazepine-11(12H)-yl)-2-[2-(2,6-dichloranilino)]-phenylethane]	1.3 µM
COc1ccc2c3c1O[C@H]1C[C@@H](O)C=C[C@@]31CCN(C(=O)c1ccc(Br)cc1)C2 [Example 41, (4aS,6R,8aS)-4a,5,9,10,11,12-hexahydro-3-methoxy-11-(4-bromo-benzoyl)-6H-[1]benzofuro[3a,3,2-ef][2]benzazepin-6-ol]	30 µM
CCOC(=O)CN1CC[C@@]23C=C[C@H](O)C[C@@H]2Oc2c(OC)ccc(c23)C1 [Example 44, Ethyl-2-((4aS,6R,8aS)-6-hydroxy-3-methoxy-5,6,9,10-tetrahydro-4aH-[1]benzofuro[3a,3,2-ef][2]benzazepine-11(12H)-yl)acetate]	42 µM
CCOC(=O)CCN1CC[C@@]23C=C[C@H](O)C[C@@H]2Oc2c(OC)ccc(c23)C1 [Example 47, Ethyl-3-((4aS,6R,8aS)-6-hydroxy-3-methoxy-5,6,9,10-tetrahydro-4aH-[1]benzofuro[3a,3,2-ef][2]benzazepine-11(12H)-yl)propanoate, hydrochloride]	51 µM
COc1ccc2c3c1O[C@H]1C[C@@H](O)C=C[C@@]31CCN(C(=O)CN1CCOCC1)C2 [Example 48, 1-[(4aS,6R,8aS)-6-hydroxy-3-methoxy-5,6,9,10-tetrahydro-4aH-[1]benzofuro[3a,3,2-ef][2]benzazepine-11(12H)-yl]-2-(4-morpholinyl) ethan-1-one]	3.8 µM
CCN(CC)CC(=O)N1CC[C@@]23C=C[C@H](O)C[C@@H]2Oc2c(OC)ccc(c23)C1 [Example 49, 1-((4aS,6R,8aS)-6-hydroxy-3-methoxy-5,6,9,10-tetrahydro-4aH-[1]benzofuro[3a,3,2-ef][2]benzazepine-11(12H)-yl]-2-(diethylamino) ethan-1-one]	40 µM
COc1ccc2c3c1O[C@H]1C[C@@H](O)C=C[C@@]31CCN(CCCN(C)C)C2 [Example 52, (4aS,6R,8aS)-11-((3-dimethylamino)propyl)-3-methoxy-5,6,9,10,11,12-hexahydro-4aH-[1]benzofuro[3a,3,2-ef][2]benzazepin-6-ol]	2.1 µM
COc1ccc2c3c1O[C@H]1C[C@@H](O)C=C[C@@]31CCN(C(=O)NC1CCCCC1)C2 [Example 53, (4aS,6R,8aS)-N11-cydohexyl-6-hydroxy-3-methoxy-5,6,9,10-tetrahydro-4aH-[1]benzofuro[3a, 3,2-ef][2]benzazepine-11(12H)-carbonic acid isopropylamide]	> 100 µM
COc1ccc2c3c1O[C@H]1C[C@@H](O)C=C[C@@]31CCN(C(=O)CCl)C2 [Example 54, 1-[(4aS,6R,8aS)-6-hydroxy-3-methoxy-5,6,9,10-tetrahydro-4aH-[1]benzofuro[3a,3,2-ef][2]benzazepine-11(12H)-yl]-2-chloroethan-1-one]	> 100 µM

The compounds below were run against acetylcholinesterase (Homo sapiens, UniProt P22303) (assay: biochemical). Conditions: not given.
acetylcholinesterase, sequence (P22303 32-614, species assumed): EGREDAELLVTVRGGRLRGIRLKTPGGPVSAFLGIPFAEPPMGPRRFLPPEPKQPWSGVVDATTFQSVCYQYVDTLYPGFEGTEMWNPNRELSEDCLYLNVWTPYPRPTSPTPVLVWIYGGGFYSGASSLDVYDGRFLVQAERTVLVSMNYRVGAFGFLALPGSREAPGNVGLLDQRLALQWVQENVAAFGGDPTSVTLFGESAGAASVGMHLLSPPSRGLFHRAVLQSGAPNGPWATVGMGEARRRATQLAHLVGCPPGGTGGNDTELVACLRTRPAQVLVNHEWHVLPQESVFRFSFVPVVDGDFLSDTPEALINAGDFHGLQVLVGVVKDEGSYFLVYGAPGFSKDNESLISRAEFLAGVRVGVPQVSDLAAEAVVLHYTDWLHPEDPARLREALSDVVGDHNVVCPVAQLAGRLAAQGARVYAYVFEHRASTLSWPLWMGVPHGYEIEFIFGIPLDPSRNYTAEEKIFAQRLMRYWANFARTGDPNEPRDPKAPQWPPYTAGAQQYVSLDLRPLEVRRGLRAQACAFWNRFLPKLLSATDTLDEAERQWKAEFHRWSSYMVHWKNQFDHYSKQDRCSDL

Compound	IC50
COc1cc(Br)c2c3c1O[C@H]1C[C@H](O)C=C[C@@]31CCNC2 [Example 1, (4aS,6S,8S)-1-bromo-4a,5,9,10,11,12-hexahydro-3-methoxy-6H-[1]benzofuro[3a,3,2-ef][2]benzazepin-6-ol.]	> 100 µM
COc1cc(Br)c2c3c1O[C@@H]1C[C@@H](O)C=C[C@]31CCNC2 [Example 3, (4aR,6R,8R)-1-bromo-4a,5,9,10,11,12-hexahydro-3-methoxy-6H-[1]benzofuro[3a,3,2-ef][2]benzazepin-6-ol.]	> 100 µM

Same assay, conditions: read-out: Acetylcholinesterase IC-50

Compound	IC50
COc1cc(Br)c2c3c1OC1C[C@H](O)C=C[C@]31CCN(CCN1CCOCC1)C2 (single isomer, unassigned) [Example 58]	> 100 µM
COc1ccc2c3c1O[C@H]1C[C@@H](O)C=C[C@@]31CCN(C(N)=S)C2 (stereo in doubt) [Example 30, (4aS,6R,8aS)-6-hydroxy-3-methoxy-5,6,9,10-tetrahydro-4aH-[1]benzofuro[3a,3,2-ef][2]benzazepine-11(12H)-carbothioamide]	> 100 µM
COc1cc(Br)c2c3c1O[C@@H]1C[C@H](O)C=C[C@]31CCN(CCCN1CCN(C)CC1)C2 [Example 8, (4aR,6R,8aR)-11-(3-(4-methylpiperazine)-1-yl-propyl)-3-methoxy-5,6,9,10,11,12-hexahydro-4aH-[1]benzofuro[3a,3,2-ef][2]benzazepin-6-oI, Trihydrochloride]	> 100 µM
